What was measured:
[1] = system: Eotaxin-3 (CCL26) release; assay: Human Whole Blood Eotaxin-3 Assay (IL-4 stimulated); assay type: cell-based; conditions: geometric mean across assay runs and compound batches, EC50 provided for test compounds with >80% Emax
How it was run: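 Lithium-heparin human whole blood preincubated 2 h at 37 °C with compounds (4-fold dilutions, triplicate, 0.5% DMSO final). Then stimulated with 400 pM final recombinant human IL-4 for 48 h. Eotaxin-3 in supernatant quantified by MSD immunoassay.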

[2] = molecular target: T1, STAT6 (Homo sapiens, UniProt P42226); assay: STAT6 Degrader Assay (HiBiT based, HeLa LgBiT clone 4.14 cells); assay type: cell-based; conditions: geometric mean across assay runs and compound batches; DC50 provided for test compounds with >80% Emax; read-out: STAT6 degradation DC50
T1 construct: These cells express endogenous STAT6; host or cells: HeLa LgBiT clone 4.14 (CRISPR knock-in of HiBiT into the endogenous STAT6 gene)
T1 sequence (P42226 1-847): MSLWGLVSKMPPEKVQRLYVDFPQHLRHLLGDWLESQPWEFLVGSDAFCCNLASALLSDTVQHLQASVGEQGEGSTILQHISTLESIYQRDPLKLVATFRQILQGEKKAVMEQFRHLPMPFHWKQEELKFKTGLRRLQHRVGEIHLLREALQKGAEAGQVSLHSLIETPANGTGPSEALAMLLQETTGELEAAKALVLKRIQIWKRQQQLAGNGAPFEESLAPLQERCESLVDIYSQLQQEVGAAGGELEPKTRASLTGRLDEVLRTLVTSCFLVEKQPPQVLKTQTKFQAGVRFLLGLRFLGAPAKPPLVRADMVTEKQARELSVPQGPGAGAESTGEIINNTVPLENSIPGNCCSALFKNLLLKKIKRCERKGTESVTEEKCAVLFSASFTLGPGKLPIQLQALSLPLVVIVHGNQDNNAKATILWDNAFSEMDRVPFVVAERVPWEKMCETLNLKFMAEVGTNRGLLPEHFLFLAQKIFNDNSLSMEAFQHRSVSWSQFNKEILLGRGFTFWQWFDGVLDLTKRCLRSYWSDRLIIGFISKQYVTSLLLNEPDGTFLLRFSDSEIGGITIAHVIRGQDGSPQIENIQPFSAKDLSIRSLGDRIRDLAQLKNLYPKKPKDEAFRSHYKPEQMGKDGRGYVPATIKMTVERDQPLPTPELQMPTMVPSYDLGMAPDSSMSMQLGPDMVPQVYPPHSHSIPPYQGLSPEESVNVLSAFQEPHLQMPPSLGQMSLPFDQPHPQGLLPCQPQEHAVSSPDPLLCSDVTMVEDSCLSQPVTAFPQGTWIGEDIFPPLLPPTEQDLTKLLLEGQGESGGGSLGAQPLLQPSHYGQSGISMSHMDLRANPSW
How it was run: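 HeLa LgBiT clone 4.14 with CRISPR HiBiT-tagged endogenous STAT6, 5000 cells/well, compound exposure 4-24 h at 37° C. Residual STAT6 read as Nano-Glo luminescence after 0.5 h. 50 μM terfenadine set 100% degradation; DC50 in nM.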

Compound | EC50 ([1]; Homo sapiens) [nM] | DC50 [2] [nM] | EC50 [1] [nM]
CNc1ccn(-c2ccnc3c2cc([C@H](C)N2CC=C(c4c(C)cc(C(=O)N5CCn6nc(CN7CCC(c8ccc(NC9CCC(=O)NC9=O)c(OC)c8)CC7)c(Cl)c6C5)cc4F)CC2)n3C)c(=O)c1 (stereo partly drawn) [Example 2g52, 3-((4-(1-((3-chloro-5-(3-fluoro-5-methyl-4-(1-((S)-1-(1-methyl-4-(4-(methyl-amino)-2-oxopyridin-1(2H)-yl)-1H-pyrrolo[2,3-b]pyridin-2-yl)ethyl)-1,2,3,6-tetrahydro-pyridin-4-yl)benzoyl)-4,5,6,7-tetrahydropyrazolo[1,5-a]pyrazin-2-yl)methyl)piperi-din-4-yl)-2-methoxyphenyl)-amino)piperidine-2,6-dione] | 0.3 | 0.8 | 
CNc1cc(=O)n(-c2ccnc3c2cc(CN2CC=C(c4c(F)cc(C(=O)N5CCC(CN6CCN(c7ccc(NC8CCC(=O)NC8=O)cc7F)CC6)CC5)cc4F)CC2)n3C)cc1F (stereo not drawn) [Example 2g65, 3-((4-(4-((1-(3,5-difluoro-4-(1-((4-(5-fluoro-4-(methyl-amino)-2-oxopyridin-1(2H)-yl)-1-methyl-1H-pyrrolo[2,3-b]pyridin-2-yl)methyl)-1,2,3,6-tetrahydropyridin-4-yl)benzoyl)piperidin-4-yl)-methyl)piperazin-1-yl)-3-fluorophenyl)amino)piperi-dine-2,6-dione] | 408 | 120 | 
CNc1cc(=O)n(-c2ccnc3c2cc([C@H](C)N2CC=C(c4c(C)cc(C(=O)N5CCC(CN6CCN(c7ccc(NC8CCC(=O)NC8=O)cc7F)CC6)CC5)cc4F)CC2)n3C)cc1F (stereo partly drawn) [Example 2g91, 3-((3-fluoro-4-(4-((1-(3-fluoro-4-(1-((S)-1-(4-(5-fluoro-4-(methylamino)-2-oxopyridin-1(2H)-yl)-1-methyl-1H-pyrrolo[2,3-b]pyridin-2-yl)ethyl)-1,2,3,6-tetrahydropyridin-4-yl)-5-methyl-benzoyl)piperidin-4-yl)methyl)piperazin-1-yl)-phenyl)amino)piperidine-2,6-dione] | 9.2 | 7 | 
CNc1ccn(-c2ccnc3c2cc([C@H](C)N2CC=C(c4c(C)cc(C(=O)N5CCC(CN6CCN(c7ncc(NC8CCC(=O)NC8=O)cc7F)C[C@@H]6C)CC5)cc4F)CC2)n3C)c(=O)c1 (stereo partly drawn) [Example 2g94, 3-((5-fluoro-6-((S)-4-((1-(3-fluoro-5-methyl-4-(1-((S)-1-(1-methyl-4-(4-(methyl-amino)-2-oxopyridin-1(2H)-yl)-1H-pyrrolo[2,3-b]pyridin-2-yl)ethyl)-1,2,3,6-tetrahydro-pyridin-4-yl)benzoyl)piperi-din-4-yl)methyl)-3-methyl-piperazin-1-yl)pyridin-3-yl)-amino)piperidine-2,6-dione] | 23.6 | 6.6 | 
CNc1ccn(-c2ccnc3c2cc([C@H](C)N2CC=C(c4c(F)cc(C(=O)N5CCC(CN6CCN(c7ccc(NC8CCC(=O)NC8=O)cc7F)CC6)CC5)cc4F)CC2)n3C)c(=O)c1 (stereo partly drawn) [Example 2g104, 3-((4-(4-((1-(3,5-difluoro-4-(1-((S)-1-(1-methyl-4-(4-(methylamino)-2-oxopyridin-1(2H)-yl)-1H-pyrrolo[2,3-b]pyridin-2-yl)ethyl)-1,2,3,6-tetrahydropyridin-4-yl)benzo-yl)piperidin-4-yl)methyl)-piperazin-1-yl)-3-fluorophen-yl)amino)piperidine-2,6-dione] | 9 | 3.8 | 
CNc1ccn(-c2ccnc3c2cc(CN2CCC(c4c(F)cc(C(=O)N5CCC(CN6CCN(c7ccc(NC8CCC(=O)NC8=O)cc7F)CC6)CC5)cc4F)CC2)n3C)c(=O)c1 (stereo not drawn) [Example 2g107, 3-((4-(4-((1-(3,5-difluoro-4-(1-((1-methyl-4-(4-(methyl-amino)-2-oxopyridin-1(2H)-yl)-1H-pyrrolo[2,3-b]pyridin-2-yl)methyl)piperidin-4-yl)-benzoyl)piperidin-4-yl)meth-yl)piperazin-1-yl)-3-fluoro-phenyl)amino)piperidine-2,6-dione] | 26.8 | 25.3 | 

More lines, in order of falling DC50 [2], values ahead:

EC50 ([1]; Homo sapiens) [nM] | DC50 [2] [nM] | EC50 [1] [nM] | Compound
 | 47.8 | 63.1 | C[C@@H](c1cc2c(-n3ccc4c(c3=O)CCN4)ccnc2n1C)N1CCC(c2ccc(C(=O)N3CCN(CC4CCN(c5ccc(NC6CCC(=O)NC6=O)cc5F)CC4)CC3)cc2)CC1 (stereo partly drawn) [Example 2g53, 3-((3-fluoro-4-(4-((4-(4-(1-((S)-1-(1-methyl-4-(4-oxo-1,2,3,4-tetrahydro-5H-pyrrolo [3,2-c]pyridin-5-yl)-1H-pyrrolo[2,3-b]pyridin-2-yl)-ethyl)piperidin-4-yl)benzoyl)-piperazin-1-yl)methyl)piperi-din-1-yl)phenyl)amino)piperi-dine-2,6-dione]
36.7 | 20.8 |  | CNc1ccn(-c2ccnc3c2cc([C@H](C)N2CC=C(c4c(C)cc(C(=O)N5CCC(CN6CCN(c7ccc(NC8CCC(=O)NC8=O)cc7F)C[C@@H]6C)CC5)cc4F)CC2)n3C)c(=O)c1 (stereo partly drawn) [Example 2g97, 3-((3-fluoro-4-((S)-4-((1-(3-fluoro-5-methyl-4-(1-((S)-1-(1-methyl-4-(4-(methyl-amino)-2-oxopyridin-1(2H)-yl)-1H-pyrrolo[2,3-b]pyridin-2-yl)ethyl)-1,2,3,6-tetrahydro-pyridin-4-yl)benzoyl)piperi-din-4-yl)methyl)-3-methyl-piperazin-1-yl)phenyl)amino)-piperidine-2,6-dione]
13.1 | 8.8 |  | CNc1ccn(-c2ccnc3c2cc([C@@H](C)N2CC=C(c4c(F)cc(C(=O)N5CCn6nc(CN7CCC(c8ccc(NC9CCC(=O)NC9=O)cc8F)CC7)cc6C5)cc4F)CC2)n3C)c(=O)c1 (stereo partly drawn) [Example 2g103, 3-((4-(1-((5-(3,5-difluoro-4-(1-((R)-1-(1-methyl-4-(4-(methylamino)-2-oxopyridin-1(2H)-yl)-1H-pyrrolo[2,3-b]pyridin-2-yl)ethyl)-1,2,3,6-tetrahydropyridin-4-yl)benzo-yl)-4,5,6,7-tetrahydropyrazolo [1,5-a]pyrazin-2-yl)methyl)-piperidin-4-yl)-3-fluorophen-yl)amino)piperidine-2,6-dione]
20.4 | 6.1 |  | Cc1cc(C(=O)N2CCC(CN3CCN(c4ccc(NC5CCC(=O)NC5=O)cc4F)CC3)CC2)cc(F)c1C1=CCN(Cc2cc3c(-n4ccc5c(c4=O)CCN5)ccnc3n2C)CC1 (stereo not drawn) [Example 2g59, 3-((3-fluoro-4-(4-((1-(3-fluoro-5-methyl-4-(1-((1-methyl-4-(4-oxo-1,2,3,4-tetrahydro-5H-pyrrolo[3,2-c]pyridin-5-yl)-1H-pyrrolo [2,3-b]pyridin-2-yl)methyl)-1,2,3,6-tetrahydropyridin-4-yl)benzoyl)piperidin-4-yl)-methyl)piperazin-1-yl)phen-yl)amino)piperidine-2,6-dione]
1.8 | 1.2 |  | CNc1ccn(-c2ccnc3c2cc(CN2CCC(c4c(F)cc(C(=O)N5CCn6nc(CN7CCC(c8ccc(NC9CCC(=O)NC9=O)cc8F)CC7)cc6C5)cc4F)CC2)n3C)c(=O)c1 (stereo not drawn) [Example 2g100, 3-((4-(1-((5-(3,5-difluoro-4-(1-((1-methyl-4-(4-(methyl-amino)-2-oxopyridin-1(2H)-yl)-1H-pyrrolo[2,3-b]pyridin-2-yl)methyl)piperidin-4-yl)-benzoyl)-4,5,6,7-tetrahydro-pyrazolo[1,5-a]pyrazin-2-yl)-methyl)piperidin-4-yl)-3-fluorophenyl)amino)piperi-dine-2,6-dione]
0.6 | 0.2 |  | CNc1cc(=O)n(-c2ccnc3c2cc([C@H](C)N2CC=C(c4c(C)cc(C(=O)N5CCn6nc(CN7CCC(c8ccc(NC9CCC(=O)NC9=O)c(OC)c8)CC7)cc6C5)cc4F)CC2)n3C)cc1F (stereo partly drawn) [Example 2g90, 3-((4-(1-((5-(3-fluoro-4-(1-((S)-1-(4-(5-fluoro-4-(meth-ylamino)-2-oxopyridin-1(2H)-yl)-1-methyl-1H-pyrrolo[2,3-b]pyridin-2-yl)ethyl)-1,2,3,6-tetrahydropyridin-4-yl)-5-methylbenzoyl)-4,5,6,7-tetra-hydropyrazolo[1,5-a]pyrazin-2-yl)methyl)piperidin-4-yl)-2-methoxyphenyl)amino)-piperidine-2,6-dione]

From patent US20250320205A1, “STAT6 DEGRADERS” (Gilead Sciences, Inc., priority 2024, published 2025)
